Assay results from ChEMBL document CHEMBL1201861, “Genomics of Drug Sensitity in Cancer screening data, Wellcome Trust Sanger Institute”.
“And” between values parts separate entries of the source, which are not always exact repeats. Equal entries are not always repeated.

What was measured:
[1] = test system: SU-DHL-1; assay: SANGER: Inhibition of human SU-DHL-1 cell growth in a cell viability assay.; assay type: functional, cell-based
[2] = test system: KMS-12-PE; assay: cells; assay type: functional, cell-based; details: Homo sapiens;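 also: growth inhibition of human KMS-12-PE cells, measured with a cell viability assay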
Description: SANGER: Inhibition of human KMS-12-PE cell growth in a cell viability assay.

[3] = test system: Daudi; assay: cells; assay type: functional, cell-based; details: Homo sapiens;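 also: growth inhibition of Daudi cells, read out by a viability assay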
Description: SANGER: Inhibition of human Daudi cell growth in a cell viability assay.

[4] = test system: ECC12; assay: cells; assay type: functional, cell-based; details: Homo sapiens
Description: SANGER: Inhibition of human ECC12 cell growth in a cell viability assay.

[5] = test system: ARH-77; assay: cells; assay type: functional, cell-based; details: Homo sapiens;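 also: growth inhibition of ARH-77 cells, read out by a cell viability assay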
Description: SANGER: Inhibition of human ARH-77 cell growth in a cell viability assay.

[6] = test system: SUP-T1; assay: cells; assay type: functional, cell-based; details: Homo sapiens;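 also: growth inhibition of human SUP-T1 cells, read out as cell viability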
Description: SANGER: Inhibition of human SUP-T1 cell growth in a cell viability assay.

[7] = test system: EVSA-T; assay: cells; assay type: functional, cell-based, Homo sapiens; details: evsa-t;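 also: growth inhibition of EVSA-T cells, read out with a cell viability assay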
Description: SANGER: Inhibition of human EVSA-T cell growth in a cell viability assay.

[8] = test system: HCC1599; assay: cells; assay type: functional, cell-based; details: Homo sapiens;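 also: growth inhibition of HCC1599 cells, read out in a cell viability assay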
Description: SANGER: Inhibition of human HCC1599 cell growth in a cell viability assay.

[9] = test system: TE-441-T; assay: cells; assay type: functional, cell-based; details: Homo sapiens
Description: SANGER: Inhibition of human TE-441-T cell growth in a cell viability assay.

[10] = test system: KARPAS-422; assay: cells; assay type: functional, cell-based; details: Homo sapiens
Description: SANGER: Inhibition of human KARPAS-422 cell growth in a cell viability assay.

[11] = test system: NCI-H1694; assay: cells; assay type: functional, cell-based; details: Homo sapiens;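 also: cell viability assay measuring inhibition of growth in human NCI-H1694 cells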
Description: SANGER: Inhibition of human NCI-H1694 cell growth in a cell viability assay.

[12] = test system: NCI-H1522; assay: cells; assay type: functional, cell-based; details: Homo sapiens;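 also: growth inhibition of NCI-H1522 cells, read out with a cell viability assay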
Description: SANGER: Inhibition of human NCI-H1522 cell growth in a cell viability assay.

[13] = test system: OC-314; assay: cells; assay type: functional, cell-based; details: Homo sapiens
Description: SANGER: Inhibition of human OC-314 cell growth in a cell viability assay.

[14] = test system: SCLC-21H; assay: cells; assay type: functional, cell-based; details: Homo sapiens;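 also: growth inhibition of cultured human SCLC-21H cells, read out with a cell viability assay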
Description: SANGER: Inhibition of human SCLC-21H cell growth in a cell viability assay.

[15] = test system: NCI-H1048; assay: cells; assay type: functional, cell-based; details: Homo sapiens;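 also: growth inhibition of human NCI-H1048 cells, read out with a cell viability assay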
Description: SANGER: Inhibition of human NCI-H1048 cell growth in a cell viability assay.

[16] = test system: G-361; assay: cells; assay type: functional, cell-based, Homo sapiens; details: g-361
[17] = test system: EHEB; assay: cells; assay type: functional, cell-based; details: Homo sapiens;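 also: growth inhibition of human EHEB cells, read out with a cell viability assay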
Description: SANGER: Inhibition of human EHEB cell growth in a cell viability assay.

[18] = test system: UACC-812; assay: cells; assay type: functional, cell-based; details: Homo sapiens
Description: SANGER: Inhibition of human UACC-812 cell growth in a cell viability assay.

[19] = test system: HT55; assay: cells; assay type: functional, cell-based, Homo sapiens;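 also: cell viability readout measuring growth inhibition of human HT55 cells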
Description: SANGER: Inhibition of human HT55 cell growth in a cell viability assay.

[20] = test system: PF-382; assay: cells; assay type: functional, cell-based; details: Homo sapiens
Description: SANGER: Inhibition of human PF-382 cell growth in a cell viability assay.

[21] = test system: NCI-H2196; assay: cells; assay type: functional, cell-based; details: Homo sapiens;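 also: cell viability assay used as the readout of growth inhibition in NCI-H2196 cells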
Description: SANGER: Inhibition of human NCI-H2196 cell growth in a cell viability assay.

[22] = test system: HuO9; assay: cells; assay type: functional, cell-based, Homo sapiens; details: huo9;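 also: growth inhibition of HuO9 cells, read out with a cell viability assay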
Description: SANGER: Inhibition of human HuO9 cell growth in a cell viability assay.

[23] = test system: LP-1; assay: cells; assay type: functional, cell-based; details: Homo sapiens;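 also: growth inhibition of human LP-1 cells, with the read-out taken from a cell viability assay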
Description: SANGER: Inhibition of human LP-1 cell growth in a cell viability assay.

[24] = test system: RPMI 8402; assay: SANGER: Inhibition of human RPMI-8402 cell growth in a cell viability assay.; assay type: functional, cell-based
[25] = test system: BL-41; assay: cells; assay type: functional, cell-based; details: Homo sapiens;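 also: growth inhibition of human BL-41 cells, read out with a cell viability assay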
Description: SANGER: Inhibition of human BL-41 cell growth in a cell viability assay.

[26] = test system: EB2; assay: cells; assay type: functional, cell-based; details: Homo sapiens;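 also: growth inhibition of EB2 cells, read out with a cell viability assay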
Description: SANGER: Inhibition of human EB2 cell growth in a cell viability assay.

[27] = test system: NCI-H1573; assay: cells; assay type: functional, cell-based; details: Homo sapiens;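 also: growth inhibition of NCI-H1573 cells, read out with a cell viability assay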
Description: SANGER: Inhibition of human NCI-H1573 cell growth in a cell viability assay.

[28] = test system: NCI-H2081; assay: cells; assay type: functional, cell-based; details: Homo sapiens;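 also: growth inhibition of human NCI-H2081 cells, read out with a cell viability assay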
Description: SANGER: Inhibition of human NCI-H2081 cell growth in a cell viability assay.

[29] = test system: NCCIT; assay: SANGER: Inhibition of human NCCIT cell growth in a cell viability assay.; assay type: functional, cell-based
[30] = test system: L-540; assay: cells; assay type: functional, cell-based; details: Homo sapiens;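 also: growth inhibition of the human L-540 cell line, read out with a viability assay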
Description: SANGER: Inhibition of human L-540 cell growth in a cell viability assay.

[31] = test system: Kasumi 1; assay: cells; assay type: functional, cell-based; details: Homo sapiens;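 also: growth inhibition of human Kasumi-1 cells, read out by a cell viability assay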
Description: SANGER: Inhibition of human KASUMI-1 cell growth in a cell viability assay.

[32] = test system: RL95-2; assay: cells; assay type: functional, cell-based; details: Homo sapiens;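 also: RL95-2 growth inhibition determined through a cell viability readout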
Description: SANGER: Inhibition of human RL95-2 cell growth in a cell viability assay.

[33] = test system: CMK; assay: cells; assay type: functional, cell-based; details: Homo sapiens;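 also: growth inhibition of CMK cells, read out as cell viability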
Description: SANGER: Inhibition of human CMK cell growth in a cell viability assay.

[34] = test system: NCI-H1703; assay: cells; assay type: functional, cell-based, Homo sapiens;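 also: growth inhibition of NCI-H1703 cells, read out via a cell viability assay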
Description: SANGER: Inhibition of human NCI-H1703 cell growth in a cell viability assay.

[35] = test system: NCI-H719; assay: cells; assay type: functional, cell-based; details: Homo sapiens;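 also: growth inhibition of the cultured cell line, read out with a viability assay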
Description: SANGER: Inhibition of human NCI-H719 cell growth in a cell viability assay.

[36] = test system: IMR-5; assay: cells; assay type: functional, cell-based; details: Homo sapiens;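 also: growth inhibition of human IMR-5 cells, read out with a cell viability assay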
Description: SANGER: Inhibition of human IMR-5 cell growth in a cell viability assay.

[37] = test system: SNU-423; assay: cells; assay type: functional, cell-based, Homo sapiens; details: snu-423
Description: SANGER: Inhibition of human SNU-423 cell growth in a cell viability assay.

[38] = test system: NCI-H1417; assay: cells; assay type: functional, cell-based; details: Homo sapiens;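 also: human NCI-H1417 cells, growth inhibition determined with a cell viability readout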
Description: SANGER: Inhibition of human NCI-H1417 cell growth in a cell viability assay.

[39] = test system: NCI-H748; assay: cells; assay type: functional, cell-based; details: Homo sapiens;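 also: growth inhibition of NCI-H748 cells, measured by a cell viability assay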
Description: SANGER: Inhibition of human NCI-H748 cell growth in a cell viability assay.

[40] = test system: NCI-H1436; assay: cells; assay type: functional, cell-based; details: Homo sapiens;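 also: growth suppression of human NCI-H1436 cells, determined with a cell viability readout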
Description: SANGER: Inhibition of human NCI-H1436 cell growth in a cell viability assay.

[41] = test system: LC-1F; assay: cells; assay type: functional, cell-based; details: Homo sapiens;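 also: growth inhibition of human LC-1F cells, read out with a cell viability assay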
Description: SANGER: Inhibition of human LC-1F cell growth in a cell viability assay.

[42] = test system: NCI-H2291; assay: cells; assay type: functional, cell-based; details: Homo sapiens
Description: SANGER: Inhibition of human NCI-H2291 cell growth in a cell viability assay.

[43] = test system: DMS-153; assay: cells; assay type: functional, cell-based; details: Homo sapiens
Description: SANGER: Inhibition of human DMS-153 cell growth in a cell viability assay.

[44] = test system: HCT-15; assay: cells; assay type: functional, cell-based, Homo sapiens; details: hct-15;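 also: cell viability readout, IC50 reflecting suppression of HCT-15 cell growth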
Description: SANGER: Inhibition of human HCT-15 cell growth in a cell viability assay.

[45] = test system: NCI-H522; assay: cells; assay type: functional, cell-based, Homo sapiens; details: nci-h522;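 also: cell viability assay measuring growth inhibition of human NCI-H522 cells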
Description: SANGER: Inhibition of human NCI-H522 cell growth in a cell viability assay.

[46] = test system: NCI-H1882; assay: cells; assay type: functional, cell-based; details: Homo sapiens;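 also: growth inhibition of the cell line, determined with a viability assay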
Description: SANGER: Inhibition of human NCI-H1882 cell growth in a cell viability assay.

[47] = test system: CFPAC-1; assay: cells; assay type: functional, cell-based; details: Homo sapiens;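 also: cell viability readout used to gauge suppression of CFPAC-1 cell proliferation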
Description: SANGER: Inhibition of human CFPAC-1 cell growth in a cell viability assay.

[48] = test system: 23132-87; assay: cells; assay type: functional, cell-based, Homo sapiens
Description: SANGER: Inhibition of human 23132-87 cell growth in a cell viability assay.

[49] = test system: SW 1116; assay: cells; assay type: functional, cell-based; details: Homo sapiens;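 also: growth inhibition of SW1116 cells, read out with a cell viability assay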
Description: SANGER: Inhibition of human SW1116 cell growth in a cell viability assay.

[50] = test system: JIYOYE; assay: cells; assay type: functional, cell-based; details: Homo sapiens
Description: SANGER: Inhibition of human JiyoyeP-2003 cell growth in a cell viability assay.

[51] = test system: BT-549; assay: cells; assay type: functional, cell-based; details: Homo sapiens
Description: SANGER: Inhibition of human BT-549 cell growth in a cell viability assay.

[52] = test system: CA46; assay: cells; assay type: functional, cell-based; details: Homo sapiens;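 also: growth inhibition of human CA46 cells, read out by a cell viability assay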
Description: SANGER: Inhibition of human CA46 cell growth in a cell viability assay.

[53] = test system: YH-13; assay: cells; assay type: functional, cell-based; details: Homo sapiens;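 also: cell viability readout of growth suppression in the human YH-13 cell line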
Description: SANGER: Inhibition of human YH-13 cell growth in a cell viability assay.

[54] = test system: MRK-nu-1; assay: cells; assay type: functional, cell-based; details: Homo sapiens;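 also: cell viability assay measuring growth suppression of human MRK-nu-1 cells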
Description: SANGER: Inhibition of human MRK-nu-1 cell growth in a cell viability assay.

[55] = test system: RPMI-6666; assay: cells; assay type: functional, cell-based; details: Homo sapiens
Description: SANGER: Inhibition of human RPMI-6666 cell growth in a cell viability assay.

[56] = test system: NB1; assay: cells; assay type: functional, cell-based; details: Homo sapiens;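 also: reduction of NB1 cell proliferation, read out with a viability assay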
Description: SANGER: Inhibition of human NB1 cell growth in a cell viability assay.

[57] = test system: BL-70; assay: SANGER: Inhibition of human BL-70 cell growth in a cell viability assay.; assay type: functional, cell-based
[58] = test system: TALL-1; assay: cells; assay type: functional, cell-based; details: Homo sapiens;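 also: growth inhibition of cultured human TALL-1 cells, read out by a cell viability assay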
Description: SANGER: Inhibition of human TALL-1 cell growth in a cell viability assay.

[59] = test system: CPC-N; assay: cells; assay type: functional, cell-based; details: Homo sapiens;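 also: growth inhibition of CPC-N cells, with a cell viability assay as the readout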
Description: SANGER: Inhibition of human CPC-N cell growth in a cell viability assay.

SMILES: Cc1cc([C@@H](C)Nc2ccccc2C(=O)O)c2nc(N3CCOCC3)cc(=O)n2c1 [AZD-6482]
- IC50 [1]: 0.568 µM
- IC50 [2]: > 5.12 µM
- IC50 [3]: 1.07 µM
- IC50 [4]: > 5.12 µM
- IC50 [5]: > 5.12 µM
- IC50 [6]: > 5.12 µM
- IC50 [7]: 3.38 µM and > 5.12 µM
- IC50 [8]: > 5.12 µM
- IC50 [9]: > 5.12 µM
- IC50 [10]: 1.54 µM
- IC50 [11]: > 5.12 µM
- IC50 [12]: > 5.12 µM
- IC50 [13]: > 5.12 µM
- IC50 [14]: > 5.12 µM
- IC50 [15]: 1.23 µM
- IC50 [16]: 3.9 µM and > 5.12 µM
- IC50 [17]: 2.98 µM
- IC50 [18]: > 5.12 µM
- IC50 ([19]; Homo sapiens, HT55): > 5.12 µM
- IC50 ([19]; ht55): > 5.12 µM
- IC50 [20]: > 5.12 µM
- IC50 [21]: > 5.12 µM
- IC50 [22]: 1.61 µM and > 5.12 µM
- IC50 [23]: > 5.12 µM
- IC50 [24]: > 5.12 µM
- IC50 [25]: > 5.12 µM
- IC50 [26]: 1.75 µM
- IC50 [27]: > 5.12 µM
- IC50 [28]: > 5.12 µM
- IC50 [29]: > 5.12 µM
- IC50 [30]: > 5.12 µM
- IC50 [31]: 2.06 µM
- IC50 [32]: > 5.12 µM
- IC50 [33]: 4.57 µM
- IC50 ([34]; Homo sapiens, NCI-H1703): > 5.12 µM
- IC50 ([34]; nci-h1703): > 5.12 µM
- IC50 [35]: > 5.12 µM
- IC50 [36]: > 5.12 µM
- IC50 [37]: 1.57 µM and > 5.12 µM
- IC50 [38]: > 5.12 µM
- IC50 [39]: > 5.12 µM
- IC50 [40]: > 5.12 µM
- IC50 [41]: > 5.12 µM
- IC50 [42]: 1.58 µM
- IC50 [43]: > 5.12 µM
- IC50 [44]: > 5.12 µM
- IC50 [45]: > 5.12 µM
- IC50 [46]: > 5.12 µM
- IC50 [47]: > 5.12 µM
- IC50 [48]: 3.36 µM
- IC50 ([48]; Homo sapiens): > 5.12 µM
- IC50 [49]: > 5.12 µM
- IC50 [50]: > 5.12 µM
- IC50 [51]: > 5.12 µM
- IC50 [52]: > 5.12 µM
- IC50 [53]: 1.95 µM
- IC50 [54]: > 5.12 µM
- IC50 [55]: 0.644 µM
- IC50 [56]: > 5.12 µM
- IC50 [57]: 4.86 µM
- IC50 [58]: > 5.12 µM
- IC50 [59]: > 5.12 µM
